Results taken from patent US4877619A, “Liposomal vesicles for intraperitoneal administration of therapeutic agents” (priority 1987, dated 1989).
Read-outs that look alike come from different tables or passages of the source.

Columns and labels:
[1] = rat, in vivo, ip
Experimental: At the times indicated in the table, the animals were anesthetized, exsanguinated and the peritoneal cavities lavaged three time with 20 ml phosphate-buffered saline. The lavage fluid was pooled and centrifuged at low speed. "Peritoneal fluid" refers to fluid lavaged and pooled from the peritoneal cavity and contains small sized vesicles. "Peritoneal pellet" refers to the pelleted portion of the lavaged peritoneal fluid, and contains cellular matter (predominately peritoneal macrophage) and large vesicles. The remaining tissues were collected, washed, blotted, weighed and distributed into tubes for gamma counting.

[2] = assay type: physicochemical
Experimental: 3.9 ml of the Na-IBF solution is injected into each flask containing lipid film. The flasks are vortex-stirred for 40 to 60 minutes in a 65° C. water bath under nitrogen. (The nitrogen purge is first passed through a 0.22 micron filter.) To the contents of each flask is added sterile, pyrogen-free phosphate buffered saline, and the flasks are centrifuged for 6 to 10 minutes at 15,000 rpm. This washing procedure is repeated for a total of five times to remove unencapsulated Na-IBF. The contents of the flasks are then combined and PBS (5 mM PO4^3- in 0.15 N NaCl) is added to a total of 32 ml. The liposome suspension thus produced comprises ILDVs of about 1 micron or larger in size suspended in the PBS.

Compound	Clearance after intraperitoneal injection [1]	Feces ([1]; 1 h)	TOTAL ([1]; 1 h)	Urine ([1]; 1 h)	Feces ([1]; 2 h)	TOTAL ([1]; 2 h)	Urine ([1]; 2 h)	Feces ([1]; 6 h)	TOTAL ([1]; 6 h)	Urine ([1]; 6 h)	Feces ([1]; 24 h)	TOTAL ([1]; 24 h)	Urine ([1]; 24 h)	Storage stability of liposome suspension [2]
O=C([O-])CN(CCN(CC(=O)[O-])CC(=O)[O-])CC(=O)[O-].[111In+3] [^111 In-EDTA, Indium-III chelated to ethylenediamine tetracetic acid]	rapid clearance from the peritoneal cavity and from the whole body	4.6 % Inj. Dose	32.58 % Inj. Dose	19 % Inj. Dose	.02 % Inj. Dose	76.73 % Inj. Dose	73 % Inj. Dose	7.6 % Inj. Dose	71.27 % Inj. Dose	60.2 % Inj. Dose	16.83 % Inj. Dose	33.91 % Inj. Dose	14.05 % Inj. Dose	
Sodium Ibuprofenate														storage-stable for a period of several months
